Source: patent US11440913B2, “Aminoimidazopyridazines as kinase inhibitors” (BRISTOL-MYERS SQUIBB COMPANY, priority 2017, dated 2022)
Structures can show the parent of a compound that is named as a salt. Where two headings read alike, the source gives them in different places.

What was measured:
[1] = biological target: His-GST-TVMV-hRIPK1(1-324) (Homo sapiens (Human), UniProt Q13546); test: RIPK1 HTRF Binding Assay; conditions: HTRF binding, 1 h at rt; read-out: RIPK1 (IC50)
Summary of the method: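 HTRF probe-displacement binding: 1 nM His-GST-TVMV-hRIPK1(1-324) (baculovirus construct), 90.6 nM probe, 0.2 nM anti-GST-Tb in 20 mM HEPES, 10 mM MgCl2, 0.015% Brij-35, 4 mM DTT, 0.05 mg/mL BSA. Incubated 1 h at rt; FRET 520/495 nm ratio, inhibition relative to DMSO-only wells.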

[2] = test system: MLKL phosphorylation in HT29-L23 human colorectal adenocarcinoma cells; test: MLKL Phosphorylation High-Content Assay; type: cell-based; conditions: 6 h, necroptosis induced with TNFα, SMAC mimetic and Z-VAD, read-out: pMLKL (IC50)
Summary of the method: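 HT29-L23 cells pretreated 30 min at 37 °C with compound (6.25 to 0.106 μM final), then necroptosis induced with TNFα 35 ng/mL, SMAC mimetic 700 nM and Z-VAD 140 nM for 6 h. Fixed cells immunostained for MLKL pS358 and imaged; IC50 and Ymax from 4-parameter logistic fit.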

His-GST-TVMV-hRIPK1(1-324), sequence (Q13546 1-324): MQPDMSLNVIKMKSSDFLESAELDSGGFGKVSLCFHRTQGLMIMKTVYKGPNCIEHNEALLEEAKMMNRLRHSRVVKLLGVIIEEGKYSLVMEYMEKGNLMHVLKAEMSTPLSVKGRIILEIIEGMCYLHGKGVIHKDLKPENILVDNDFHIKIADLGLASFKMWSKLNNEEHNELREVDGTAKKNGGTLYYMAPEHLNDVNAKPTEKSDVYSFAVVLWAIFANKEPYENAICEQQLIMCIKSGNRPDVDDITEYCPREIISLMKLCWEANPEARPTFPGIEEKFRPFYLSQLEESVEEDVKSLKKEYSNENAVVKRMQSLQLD

Compound	IC50 [1] [nM]	IC50 ([2]; Homo sapiens) [nM]	IC50 [2] [nM]
CC(=O)Nc1cn2nc(-c3ccc(C)c(C(=O)NCc4cc(F)ccc4-c4cnn(C)c4)c3)ccc2n1 [Example 403, 5-{2-acetamidoimidazo [1,2-b]pyridazin-6-yl}-N-{[5-fluoro-2-(1-methyl-1H-pyrazol-4-yl)phenyl]methyl}-2-methylbenzamide]	67	262	–
COc1nc(C)c(-c2ccc3nc(NC(C)=O)cn3n2)cc1C(=O)NCc1cc(F)cc(F)c1OCC1CCC1 [Example 294, N-{[2-(cyclobutylmethoxy)-3,5-difluorophenyl]methyl}-5-{2-acetamidoimidazo[1,2-b]pyridazin-6-yl}-2-methoxy-6-methylpyridine-3-carboxamide]	10	3	–
[2H]C([2H])([2H])Oc1nc(C)c(-c2ccc3nc(NC(C)=O)cn3n2)cc1C(=O)NCc1cc(F)cc(F)c1OC([2H])([2H])C1CC1 [Example 174, N-({2-[cyclopropyl(deutero)methoxy]-3,5-difluorophenyl}methyl)-5-{2-acetamidoimidazo[1,2-b]pyridazin-6-yl}-2-(deutero)methoxy-6-methylpyridine-3-carboxamide]	3	1	–
5-{2-acetamidoimidazo[1,2-b]pyridazin- 6-yl}-N-{[2-fluoro-5- (trifluoromethoxy)phenyl]- (deutero)methyl}-2-methoxy-6- methylpyridine-3-carboxamide [Example 282]	10	–	8
CC(=O)Nc1cn2nc(-c3cnc(Cl)c(C(=O)NC(C)c4ccccc4OC(F)(F)F)c3)ccc2n1 (centres unmarked) [Example 268, 2-chloro-5-{2-acetamidoimidazo[1,2-b]pyridazin-6-yl}-N-{1-[2-(trifluoromethoxy)phenyl]ethyl}pyridine-3-carboxamide]	46	73	–
Cc1ncc(-c2ccc3nc(NC(=O)CN4CCC(F)(F)CC4)cn3n2)cc1C(=O)N[C@H](C)c1cc(OC(F)(F)F)ccc1F [Example 334, 5-{2-[2-(4,4-difluoropiperidin-1-yl)acetamido]-imidazo[1,2-b]pyridazin-6-yl}-N-[(1R)-1-[2-fluoro-5-(trifluoromethoxy)-phenyl]ethyl]-2-methylpyridine-3-carboxamide]	15	10	–
COc1ncc(-c2ccc3nc(NC(C)=O)cn3n2)cc1C(=O)N[C@H](C)c1cccc(OC(F)(F)F)c1 [Example 112, 5-{2-acetamidoimidazo[1,2-b]pyridazin-6-yl}-2-methoxy-N-[(1R)-1-[3-(trifluoromethoxy)phenyl](2,2,2-deutero)ethyl]pyridine-3-carboxamide]	17	–	73
CC(=O)Nc1cn2nc(-c3cnc(C)c(C(=O)Nc4cn(Cc5ccc(F)cc5)cn4)c3)ccc2n1 [Example 350, 5-{2-acetamidoimidazo[1,2-b]pyridazin-6-yl}-N-{1-[(4-fluorophenyl)methyl]-1H-imidazol-4-yl}-2-methylpyridine-3-carboxamide]	27	169	–
Cc1ccc(-c2ccc3nc(NC(=O)[C@H](C)O)cn3n2)cc1C(=O)NCc1cc(OC(F)(F)F)ccc1F [Example 395, (S)-N-(2-fluoro-5-(trifluoromethoxy)benzyl)-5-(2-(2-hydroxypropanamido)imidazo[1,2-b]pyridazin-6-yl)-2-methylbenzamide]	7	25	–
CC(=O)Nc1cn2nc(-c3cc(C(=O)NCc4cc(C(F)(F)F)cc(Cl)c4F)c(C)cc3C)ccc2n1 [Example 384, N-{[3-chloro-2-fluoro-5-(trifluoromethyl)phenyl]methyl}-5-{2-acetamidoimidazo [1,2-b]pyridazin-6-yl}-2,4-dimethylbenzamide]	48	99	–
COc1nc(C)c(-c2ccc3nc(NC(C)=O)cn3n2)cc1C(=O)NC(C)c1cccc(OC(F)(F)F)c1 (centres unmarked) [Example 289, 5-{2-acetamidoimidazo[1,2-b]pyridazin-6-yl}-2-methoxy-6-methyl-N-{1-[3-(trifluoromethoxy)phenyl]ethyl}pyridine-3-carboxamide]	16	–	16
CC(=O)Nc1cn2nc(-c3cnc(C)c(C(=O)NCc4c(F)cccc4OCC4CCC4)c3)ccc2n1 [Example 219, N-{[2-(cyclobutylmethoxy)-6-fluorophenyl]methyl}-5-{2-acetamidoimidazo[1,2-b]pyridazin-6-yl}-2-methylpyridine-3-carboxamide]	3	1	–
CC(=O)Nc1cn2nc(-c3cnc(C)c(C(=O)NCC[C@@H](O)c4ccc(Cl)cc4)c3)ccc2n1 [Example 211, N-[(3R)-3-(4-chlorophenyl)-3-hydroxypropyl]-5-{2-acetamidoimidazo[1,2-b]pyridazin-6-yl}-2-methylpyridine-3-carboxamide]	62	137	–
CC(=O)Nc1cn2nc(-c3cnc(Cl)c(C(=O)NCc4cc(OC(F)(F)F)ccc4F)c3)ccc2n1 [Example 12, 2-chloro-5-{2-acetamidoimidazo[1,2-b]pyridazin-6-yl}-N-{[2-fluoro-5-(trifluoromethoxy)phenyl]methyl}pyridine-3-carboxamide]	5	27	–
[2H]C([2H])([2H])Oc1nc(C)c(-c2ccc3nc(NC(C)=O)cn3n2)cc1C(=O)NCc1cc(F)cc(F)c1O[C@@H]1CCOC1 [Example 169, N-({3,5-difluoro-2-[(3R)-oxolan-3-yloxy]phenyl}methyl)-5-{2-acetamidoimidazo[1,2-b]pyridazin-6-yl}-2-(deutero)methoxy-6-methylpyridine-3-carboxamide]	3	10	–
CC(=O)Nc1cn2nc(-c3cnc(C)c(C(=O)NCc4cc(F)cc(F)c4OC4CCOC(C)C4)c3)ccc2n1 (centres unmarked) [Example 188, N-({3,5-difluoro-2-[(2-methyloxan-4-yl)oxy]phenyl}methyl)-5-{2-acetamidoimidazo [1,2-b]pyridazin-6-yl}-2-methylpyridine-3-carboxamide]	22	217	–
Cc1nc(C)c(-c2ccc3nc(NC(=O)CO)cn3n2)cc1C(=O)N[C@H](C)c1cc(C(F)(F)F)ccc1F [Example 92, N-[(1R)-1-[2-fluoro-5-(trifluoromethyl)phenyl]ethyl]-5-[2-(2-hydroxyacet-amido)imidazo[1,2-b]pyridazin-6-yl]-2,6-dimethylpyridine-3-carboxamide]	48	127	–
CC(=O)Nc1cn2nc(-c3cc(C(=O)NCc4cc(F)ccc4OCC(F)(F)F)c(C)nc3C)ccc2n1 [Example 72, 5-{2-acetamidoimidazo[1,2-b]pyridazin-6-yl}-N-{[5-fluoro-2-(2,2,2-trifluoroethoxy)phenyl]methyl}-2,6-dimethylpyridine-3-carboxamide, TFA]	17	30	–
[2H]C([2H])([2H])Oc1nc(C)c(-c2ccc3nc(NC(C)=O)cn3n2)cc1C(=O)NCc1cccc(F)c1OC1C[C@@H](C)O[C@@H](C)C1 (stereo partly drawn) [Example 168, N-[(2-{[(2R,6S)-2,6-dimethyloxan-4-yl]oxy}-3-fluorophenyl)methyl]-5-{2-acetamidoimidazo[1,2-b]pyridazin-6-yl}-2-(deutero)methoxy-6-methylpyridine-3-carboxamide]	21	67	–
COc1ncc(-c2ccc3nc(NC(C)=O)cn3n2)cc1C(=O)NCc1c(F)ccc(F)c1OCC1CC1 [Example 127, N-{[2-(cyclopropylmethoxy)-3,6-difluorophenyl]methyl}-5-{2-acetamidoimidazo[1,2-b]pyridazin-6-yl}-2-methoxypyridine-3-carboxamide]	4	33	–
[2H]C([2H])([2H])Oc1nc(C)c(-c2ccc3nc(NC(C)=O)cn3n2)cc1C(=O)NC(C)c1ccccc1OC(F)(F)F (single isomer, unassigned) [Example 13-2, 5-{2-acetamidoimidazo[1,2-b]pyridazin-6-yl}-2-(D3)methoxy-6-methyl-N-{1-[2-(trifluoromethoxy)phenyl]ethyl}pyridine-3-carboxamide]	6	–	1
CC(=O)Nc1cn2nc(-c3cc(C(=O)NCC[C@H](O)c4ccc(Cl)cc4)c(C)nc3C)ccc2n1 [Example 82, N-[(3S)-3-(4-chlorophenyl)-3-hydroxypropyl]-5-{2-acetamidoimidazo[1,2-b]pyridazin-6-yl}-2,6-dimethylpyridine-3-carboxamide]	21	18	–
COc1ncc(-c2ccc3nc(NC(C)=O)cn3n2)cc1C(=O)NCc1ccccc1OCC1CCC1 [Example 155, N-{[2-(cyclobutylmethoxy)phenyl]methyl}-5-{2-acetamidoimidazo[1,2-b]pyridazin-6-yl}-2-methoxypyridine-3-carboxamide]	2	6	–
Cc1ncc(-c2ccc3nc(NC(=O)CN4CCN(C)CC4)cn3n2)cc1C(=O)N[C@H](C)c1cc(C(F)(F)F)ccc1F [Example 332, N-[(1R)-1-[2-fluoro-5-(trifluoromethyl)-phenyl]ethyl]-2-methyl-5-{2-[2-(4-methylpiperazin-1-yl)acetamido]imidazo[1,2-b]pyridazin-6-yl}pyridine-3-carboxamide]	308	25	–
COc1nc(C)c(-c2ccc3nc(NC(C)=O)cn3n2)cc1C(=O)NCc1ccc(F)cc1OCC1CC1 [Example 317, N-{[2-(cyclopropylmethoxy)-4-fluorophenyl]methyl}-5-{2-acetamidoimidazo[1,2-b]pyridazin-6-yl}-2-methoxy-6-methylpyridine-3-carboxamide]	3	19	–
